Laboratory results published in ChEMBL document CHEMBL1649485, “High prevalence of qnr genes in commensal enterobacteria from healthy children in Peru and Bolivia” (2009).
≈ marks a conversion by molar mass, not a printed value.

Key:
Enterobacter cloacae [1] = experiment: Antimicrobial activity against Enterobacter cloacae clinical isolate assessed as resistant isolate; assay type: functional
Klebsiella pneumoniae [2] = experiment: Antimicrobial activity against qnrS-positive Klebsiella pneumoniae clinical isolate by agar dilution method; assay type: functional
Klebsiella pneumoniae [3] = experiment: Antimicrobial activity against qnrS-positive Klebsiella pneumoniae clinical isolate assessed as susceptible isolate; assay type: functional
Escherichia coli [4] = experiment: Antimicrobial activity against Escherichia coli isolate M1 harboring qnrB19 gene by agar dilution method; assay type: functional
Escherichia coli [5] = experiment: Antimicrobial activity against qnrB/S-positive Escherichia coli clinical isolate assessed as susceptible isolate; assay type: functional
Citrobacter freundii [6] = experiment: Antimicrobial activity against Citrobacter freundii clinical isolate by agar dilution method; assay type: functional
Escherichia coli [7] = experiment: Antimicrobial activity against qnrB-positive Escherichia coli clinical isolate assessed as susceptible isolate; assay type: functional
Klebsiella pneumoniae [8] = experiment: Antimicrobial activity against Klebsiella pneumoniae isolate Y1 harboring qnrB19 gene by agar dilution method; assay type: functional
Escherichia hermannii [9] = experiment: Antimicrobial activity against Escherichia hermannii clinical isolate by agar dilution method; assay type: functional; conditions: Atlantibacter hermannii
Escherichia coli [10] = experiment: Antimicrobial activity against Escherichia coli isolate Y2 harboring qnrS1 gene by agar dilution method; assay type: functional
Klebsiella pneumoniae [11] = experiment: Antimicrobial activity against qnrB-positive Klebsiella pneumoniae clinical isolate assessed as susceptible isolate; assay type: functional
Klebsiella pneumoniae [12] = experiment: Antimicrobial activity against qnrS-positive Klebsiella pneumoniae clinical isolate assessed as resistant isolate; assay type: functional
Klebsiella oxytoca [13] = experiment: Antimicrobial activity against Klebsiella oxytoca isolate M2 harboring qnrS1 gene by agar dilution method; assay type: functional
Citrobacter freundii [14] = experiment: Antimicrobial activity against Citrobacter freundii clinical isolate assessed as resistant isolate; assay type: functional
Escherichia hermannii [15] = experiment: Antimicrobial activity against Escherichia hermannii clinical isolate assessed as resistant isolate; assay type: functional, Atlantibacter hermannii
Enterobacter cloacae [16] = experiment: Antimicrobial activity against Enterobacter cloacae clinical isolate by agar dilution method; assay type: functional
Klebsiella oxytoca [17] = experiment: Antimicrobial activity against Klebsiella oxytoca clinical isolate by agar dilution method; assay type: functional
Escherichia coli [18] = experiment: Antimicrobial activity against Escherichia coli isolate M3 harboring qnrS1 gene by agar dilution method; assay type: functional
Klebsiella pneumoniae [19] = experiment: microbe, parasite or virus in culture; conditions: isolate M2
Description: Antimicrobial activity against Klebsiella pneumoniae isolate M2 harboring qnrS1 gene by agar dilution method

Escherichia coli [20] = experiment: Antimicrobial activity against qnrB/S-positive Escherichia coli clinical isolate by agar dilution method; assay type: functional
Klebsiella oxytoca [21] = experiment: Antimicrobial activity against Klebsiella oxytoca isolate M1 harboring qnrB19 gene by agar dilution method; assay type: functional
Klebsiella pneumoniae [22] = experiment: Antimicrobial activity against qnrB-positive Klebsiella pneumoniae clinical isolate assessed as resistant isolate; assay type: functional
Escherichia coli [23] = experiment: Antimicrobial activity against qnrS-positive Escherichia coli clinical isolate assessed as susceptible isolate; assay type: functional
Klebsiella pneumoniae [24] = experiment: Antimicrobial activity against Klebsiella pneumoniae isolate V2 harboring qnrS1 gene by agar dilution method; assay type: functional
Escherichia coli [25] = experiment: Antimicrobial activity against qnrB-positive Escherichia coli clinical isolate assessed as resistant isolate; assay type: functional
Klebsiella oxytoca [26] = experiment: Antimicrobial activity against Klebsiella oxytoca clinical isolate assessed as resistant isolate; assay type: functional
Escherichia coli [27] = experiment: Antimicrobial activity against Escherichia coli isolate Y3 harboring qnrS1 gene by agar dilution method; assay type: functional
Klebsiella pneumoniae [28] = experiment: Antimicrobial activity against Klebsiella pneumoniae isolate M1 harboring qnrB19 gene by agar dilution method; assay type: functional
Escherichia coli [29] = experiment: Antimicrobial activity against Escherichia coli isolate M2 harboring qnrS1 gene by agar dilution method; assay type: functional
Klebsiella pneumoniae [30] = experiment: microbe, parasite or virus in culture; conditions: isolate V1
Description: Antimicrobial activity against Klebsiella pneumoniae isolate V1 harboring qnrB2 gene by agar dilution method

Escherichia coli [31] = experiment: Antimicrobial activity against Escherichia coli isolate Y1 harboring qnrB19 gene by agar dilution method; assay type: functional
Escherichia coli [32] = experiment: Antimicrobial activity against qnrB/S-positive Escherichia coli clinical isolate assessed as resistant isolate; assay type: functional
Escherichia coli [33] = experiment: Antimicrobial activity against qnrB-positive Escherichia coli clinical isolate by agar dilution method; assay type: functional
Escherichia coli [34] = experiment: Antimicrobial activity against qnrS-positive Escherichia coli clinical isolate assessed as resistant isolate; assay type: functional
Escherichia coli [35] = experiment: Antimicrobial activity against Escherichia coli isolate V1 harboring qnrB19 gene by agar dilution method; assay type: functional
Enterobacter cloacae [36] = experiment: Antimicrobial activity against Enterobacter cloacae isolate V1 harboring qnrB2 gene by agar dilution method; assay type: functional
Klebsiella pneumoniae [37] = experiment: Antimicrobial activity against Klebsiella pneumoniae isolate Y2 harboring qnrS1 gene by agar dilution method; assay type: functional
Escherichia hermannii [38] = experiment: Antimicrobial activity against Escherichia hermannii isolate C1 harboring qnrB19 gene by agar dilution method; assay type: functional; conditions: Atlantibacter hermannii
Klebsiella pneumoniae [39] = experiment: Antimicrobial activity against Klebsiella pneumoniae isolate C2 harboring qnrS1 gene by agar dilution method; assay type: functional
Escherichia coli [40] = experiment: Antimicrobial activity against Escherichia coli isolate C1 harboring qnrB19 gene by agar dilution method; assay type: functional
Escherichia coli [41] = experiment: Antimicrobial activity against qnrS-positive Escherichia coli clinical isolate by agar dilution method; assay type: functional
Citrobacter freundii [42] = experiment: Antimicrobial activity against Citrobacter freundii isolate V1 harboring qnrB10 gene by agar dilution method; assay type: functional
Klebsiella pneumoniae [43] = experiment: Antimicrobial activity against qnrB-positive Klebsiella pneumoniae clinical isolate by agar dilution method; assay type: functional
Klebsiella oxytoca [44] = experiment: Antimicrobial activity against Klebsiella oxytoca clinical isolate assessed as susceptible isolate; assay type: functional; conditions: pooled result: one value given for 4 cell lines, strains, targets or settings

Structure (SMILES): CCn1cc(C(=O)O)c(=O)c2ccc(C)nc21 [NALIDIXIC ACID]
- Activity (Enterobacter cloacae [1]): 57%
- MIC (Klebsiella pneumoniae [2]): 16 µg/mL (≈ 68.9 µM)
- Activity (Klebsiella pneumoniae [3]): 13%
- MIC (Escherichia coli [4]): 16 µg/mL (≈ 68.9 µM)
- Activity (Escherichia coli [5]): 50%
- MIC (Citrobacter freundii [6]): 16 µg/mL (≈ 68.9 µM)
- Activity (Escherichia coli [7]): 13%
- MIC (Klebsiella pneumoniae [8]): 64 µg/mL (≈ 276 µM)
- MIC (Escherichia hermannii [9]): 16 µg/mL (≈ 68.9 µM)
- MIC (Escherichia coli [10]): 16 µg/mL (≈ 68.9 µM)
- Activity (Klebsiella pneumoniae [11]): 20%
- Activity (Klebsiella pneumoniae [12]): 87%
- MIC (Klebsiella oxytoca [13]): > 128 µg/mL
- Activity (Citrobacter freundii [14]): 57%
- Activity (Escherichia hermannii [15]): 57%
- MIC (Enterobacter cloacae [16]): 16 µg/mL (≈ 68.9 µM)
- MIC (Klebsiella oxytoca [17]): 16 µg/mL (≈ 68.9 µM)
- MIC (Escherichia coli [18]): 32 µg/mL (≈ 138 µM)
- MIC (Klebsiella pneumoniae [19]): 32 µg/mL (≈ 138 µM)
- MIC (Escherichia coli [20]): 16 µg/mL (≈ 68.9 µM)
- MIC (Klebsiella oxytoca [21]): 16 µg/mL (≈ 68.9 µM)
- Activity (Klebsiella pneumoniae [22]): 80%
- Activity (Escherichia coli [23]): 100%
- MIC (Klebsiella pneumoniae [24]): 16 µg/mL (≈ 68.9 µM)
- Activity (Escherichia coli [25]): 87%
- Activity (Klebsiella oxytoca [26]): 57%
- MIC (Escherichia coli [27]): 16 µg/mL (≈ 68.9 µM)
- MIC (Klebsiella pneumoniae [28]): 32 µg/mL (≈ 138 µM)
- MIC (Escherichia coli [29]): 16 µg/mL (≈ 68.9 µM)
- MIC (Klebsiella pneumoniae [30]): 32 µg/mL (≈ 138 µM)
- MIC (Escherichia coli [31]): 32 µg/mL (≈ 138 µM)
- Activity (Escherichia coli [32]): 50%
- MIC50 (Escherichia coli [33]): 32 µg/mL (≈ 138 µM)
- MIC90 (Escherichia coli [33]): > 128 µg/mL
- Activity (Escherichia coli [34]): 0%
- MIC (Escherichia coli [35]): 32 µg/mL (≈ 138 µM)
- MIC (Enterobacter cloacae [36]): 32 µg/mL (≈ 138 µM)
- MIC (Klebsiella pneumoniae [37]): 32 µg/mL (≈ 138 µM)
- MIC (Escherichia hermannii [38]): 32 µg/mL (≈ 138 µM)
- MIC (Klebsiella pneumoniae [39]): 32 µg/mL (≈ 138 µM)
- MIC (Escherichia coli [40]): 32 µg/mL (≈ 138 µM)
- MIC (Escherichia coli [41]): 16 µg/mL (≈ 68.9 µM)
- MIC (Citrobacter freundii [42]): 16 µg/mL (≈ 68.9 µM)
- MIC (Klebsiella pneumoniae [43]): 16 µg/mL (≈ 68.9 µM)
- Activity (Klebsiella oxytoca [44]): 43%

Structure (SMILES): O=C(O)c1cn(C2CC2)c2cc(N3CCNCC3)c(F)cc2c1=O [CIPROFLOXACIN]
- MIC (Klebsiella pneumoniae [8]): 2 µg/mL (≈ 6.04 µM)
- MIC (Klebsiella oxytoca [13]): 4 µg/mL (≈ 12.1 µM)
- MIC (Klebsiella pneumoniae [19]): 4 µg/mL (≈ 12.1 µM)
- MIC (Klebsiella pneumoniae [28]): 2 µg/mL (≈ 6.04 µM)
- MIC (Klebsiella pneumoniae [39]): 2 µg/mL (≈ 6.04 µM)

Structure (SMILES): C[C@H]1COc2c(N3CCN(C)CC3)c(F)cc3c(=O)c(C(=O)O)cn1c23.C[C@H]1COc2c(N3CCN(C)CC3)c(F)cc3c(=O)c(C(=O)O)cn1c23.O [LEVOFLOXACIN]
- Activity (Enterobacter cloacae [1]): 0%
- Activity (Klebsiella pneumoniae [3]): 87%
- Activity (Escherichia coli [5]): 100%
- MIC (Citrobacter freundii [6]): 0.25 µg/mL
- Activity (Escherichia coli [7]): 79%
- MIC (Escherichia hermannii [9]): 0.25 µg/mL
- Activity (Klebsiella pneumoniae [11]): 100%
- Activity (Klebsiella pneumoniae [12]): 13%
- MIC (Klebsiella oxytoca [13]): 4 µg/mL
- Activity (Citrobacter freundii [14]): 0%
- Activity (Escherichia hermannii [15]): 0%
- MIC (Enterobacter cloacae [16]): 0.25 µg/mL
- MIC (Klebsiella oxytoca [17]): 0.25 µg/mL
- MIC (Escherichia coli [18]): 2 µg/mL
- MIC (Klebsiella oxytoca [21]): 0.5 µg/mL
- Activity (Klebsiella pneumoniae [22]): 0%
- Activity (Escherichia coli [23]): 100%
- MIC (Klebsiella pneumoniae [24]): 2 µg/mL
- Activity (Escherichia coli [25]): 4%
- Activity (Klebsiella oxytoca [26]): 0%
- MIC (Klebsiella pneumoniae [28]): 2 µg/mL
- Activity (Escherichia coli [32]): 0%
- MIC50 (Escherichia coli [33]): 1 µg/mL
- MIC90 (Escherichia coli [33]): 4 µg/mL
- Activity (Escherichia coli [34]): 0%
- MIC (Enterobacter cloacae [36]): 2 µg/mL
- MIC (Klebsiella pneumoniae [37]): 2 µg/mL
- MIC (Escherichia hermannii [38]): 0.25 µg/mL
- MIC (Klebsiella pneumoniae [39]): 2 µg/mL
- MIC (Citrobacter freundii [42]): 0.5 µg/mL
- Activity (Klebsiella oxytoca [44]): 71%
